These results are taken from publication PMC11370260 (Microbiology Spectrum, 2024).

For one test, the target named is T1, RhlR (Pseudomonas aeruginosa, UniProt P54292).
T1 construct: expressed in transfected cells; host or cells: E. coli DH5α carrying pECP61.5
The experiment in a line: E. coli RhlR bioreporter (pECP61.5, rhlA-lacZ), β-galactosidase readout. Format: cell-based. From the text: (§1) To test the ability of our set of benzaldehydes and related compounds to antagonize RhlR, we generated dose-response curves with these compounds using an E. coli RhlR reporter strain (Fig. 6; Table 2). This strain is analogous to the LasR reporter above, but it carries plasmid pECP61.5 expressing RhlR from the isopropyl β-D-1-thiogalactopyranoside (IPTG)-inducible […] promoter as well as the rhlA-lacZ reporter ([38]). We also utilized our constitutive lacZ reporter plasmid pVT19 to generate dose-response curves using the RhlR assay conditions (Fig. 6; Table 2). […] With the constitutive lacZ reporter, there was a similar spread in potencies for our compounds, with ortho-vanillin having the lowest IC50 and salicylic acid as the highest. However, the IC50 for ortho-vanillin was fivefold lower with RhlR than with the constitutive lacZ reporter. There were also no observed effects of ortho-vanillin on growth until concentrations at which there was >50% antagonism of the RhlR reporter, and there was no antagonism of the constitutive lacZ reporter until concentrations >500 µM.
(§2) To assess LasR activation of lasR expression in recombinant E. coli, we used E. coli strain DH5α carrying two plasmids; plasmid pJN105-L ([50]) with an arabinose-inducible P. aeruginosa lasR and plasmid pSC11-L ([51]) with the promoter of the LasR-responsive gene lasI fused to a lacZ reporter. For some studies, pJN105-L was replaced with derivatives of this plasmid encoding LasR mutants with single amino acid substitutions ([33]). To assess RhlR activation of rhlR expression in recombinant E. coli, we used E. coli DH5α with plasmid pECP61.5 ([38]) with an IPTG-inducible ptac-rhlR and an RhlR-responsive gene rhlA fused to the lacZ reporter. For constitutive expression of the lacZ reporter, we used E. coli DH5α with plasmid pVT19, which has the lacZ gene fused to the constitutive aphA-3 promoter. To construct pVT19, the constitutive aphA-3 promoter ([29], [30]) was amplified from a pTCV-lac derivative using primers Vlac1 and Vlac2 ([30]). The resulting amplicon was digested with EcoRI and BamHI and ligated into similarly digested pKS12A ([52]). The resulting plasmid with the aphA-3 promoter transcriptionally fused to lacZ was designated pVT19. For constitutive expression of the gfp reporter, we used E. coli DH5α with plasmid pUC18T-mini-Tn7T-Gm-gfpmut3 ([53]).
(§3) To assess RhlR activation of rhlR expression in recombinant E. coli, overnight cultures of E. coli DH5α pECP61.5 grown at 30°C in A medium containing antibiotic selection (ampicillin) and IPTG to induce RhlR expression were diluted to an OD600 of 0.1, and 1 mL was added to culture tubes containing dried C4-HSL. Aliquots (5 µL) of DMSO containing increasing concentrations of inhibitor test compound or DMSO with no test compound were added to the designated Eppendorf tubes containing culture. Tubes containing E. coli with signal and DMSO were included as vehicle control. After 5 h at 30°C with shaking, OD600 was measured using a plate reader, and β-galactosidase activity was measured as described above.

Another test deals with T2, LasR (Pseudomonas aeruginosa, UniProt P25084).
T2 construct: expressed in transfected cells; host or cells: E. coli DH5α carrying pJN105-L and pSC11-L
As to the kind of experiment: E. coli LasR bioreporter (Para-lasR, PlasI-lacZ), β-galactosidase readout. Format: cell-based. The conditions noted are these: for fold lower concentration inhibiting LasR-specific reporter than constitutive reporter: IC50 constitutive reporter vs LasR reporter; for IC50: IC50 ± CI, LasR reporter, competed against 100 nM 3OC12-HSL, 95% confidence interval in parentheses.
Description: (§4) To characterize compounds for their potential activity as LasR antagonists, we used heterologous E. coli, which enables LasR to be isolated from other host regulation effects. We used an E. coli strain expressing LasR from an arabinose-inducible promoter (Para-lasR) on plasmid pJN105-L and a second plasmid with the LasR-inducible lasI promoter fused to a promoterless lacZ reporter (PlasI-lacZ) on plasmid pSC11-L (Fig. 2A). […] As a control, we also constructed an E. coli strain carrying a plasmid with lacZ expressed from the constitutive aphA-3 promoter ([29], [30]), pVT19.
as §2
(§5) To assess LasR activation of lasR expression in recombinant E. coli, overnight cultures of E. coli DH5α pSC11-L and pJN105-L were diluted 1:100 into LB containing selection antibiotics gentamicin and ampicillin in 10 mL cultures. When the cultures reached an OD600 of 0.2–0.3, L-(+)-arabinose was added to a final concentration of 0.25%. […] Aliquots (5 µL) of increasing concentrations of inhibitor test compound stock solution in DMSO were then added to the designated micro centrifuge tubes containing culture. Tubes containing E. coli with just signal and DMSO were included as controls. After 3 h at 37°C with shaking, OD600 was measured using a plate reader, and β-galactosidase activity was measured as described above.

For test [1], the system named is constitutive aphA-3-lacZ reporter. The experiment in a line: E. coli constitutive aphA-3-lacZ reporter (pVT19), LasR reporter conditions. The class given is cell-based. The conditions noted are these: Escherichia coli, read-out: IC50 ± CI, Constitutive reporter.
Description: as §4, §2, §5
(§6) Experiments with the LasR mutants and the constitutive lacZ expression plasmid pVT19 or constitutive gfp expression plasmid pUC18T-mini-Tn7T-Gm-gfpmut3 were carried out identically as described above for the LasR or RhlR bioreporter experiments. Results with the […] constitutive reporter strain were different for the LasR vs RhlR bioreporter protocols likely due to differences in growth conditions (temperature and/or growth media).

The test system is the same in test [2]. As to the kind of experiment: E. coli constitutive aphA-3-lacZ reporter (pVT19), RhlR reporter conditions. Format: cell-based, Escherichia coli. The conditions noted are these: for IC50: Escherichia coli.
Description: as §1, §2, §3, §6

For test [3], the system named is LasR mutants. The experiment in a line: E. coli LasR mutant lasI-lacZ reporters (W60F, Y56F, T75V, Y93F, S129A). The settings on record: W60F, Y56F, T75V, Y93F, S129A; competed against 3OC12-HSL at EC50 of each mutant. The class given is cell-based, Pseudomonas aeruginosa.
Description: (§7) To examine these putative interactions between ortho-vanillin and LasR, we determined the activity of ortho-vanillin in several LasR mutants. In prior studies in our laboratories, a set of LasR mutants were generated in which residues within the ligand-binding pocket were mutated to a different residue of similar steric size but without the capability to hydrogen bond (e.g., Tyr → Phe). These mutants were introduced into E. coli to generate lasI-lacZ reporters analogous to the wild-type LasR reporter above (see Table S1 and Materials and Methods). From that set, we selected five LasR mutant reporters to test ortho-vanillin (W60F, Y56F, T75V, Y93F, and S129A), which included the Thr75 and Ser129 residues predicted to be important for ortho-vanillin interaction in our in silico study. […] As a control, we also tested the ability of V-06–018 to antagonize the LasR S129A mutant. We used the same approach to test the ability of […] to antagonize LasR and the LasR S129A mutant. […] Results from one of the concentrations (100 µM) are shown instead.
as §2, with “The resulting amplicon was digested with EcoRI and BamHI and ligated into similarly digested pKS12A ([52]). The resulting plasmid with the aphA-3 promoter transcriptionally fused to lacZ was designated pVT19. For constitutive expression of the gfp reporter, we used E. coli DH5α with plasmid pUC18T-mini-Tn7T-Gm-gfpmut3 ([53]).” left out

The target of test [4] is T3, LasR mutants (Pseudomonas aeruginosa, UniProt P25084, S129A).
T3 construct: expressed in transfected cells; host or cells: E. coli DH5α carrying pSC11-L and a pJN105-L mutant analog (pJG044, pJG008, pJG011, pJG012 or pJG014)
The description is as above. The settings on record: S129A mutant. Format: cell-based.
Description: as §7
as §2, with “The resulting amplicon was digested with EcoRI and BamHI and ligated into similarly digested pKS12A ([52]). The resulting plasmid with the aphA-3 promoter transcriptionally fused to lacZ was designated pVT19. For constitutive expression of the gfp reporter, we used E. coli DH5α with plasmid pUC18T-mini-Tn7T-Gm-gfpmut3 ([53]).” left out

Another test relates to E. coli. The experiment in a line: Growth (OD600) of E. coli reporter strain, LasR reporter conditions. The class given is cell-based, Escherichia coli. The conditions noted are these: at the highest concentrations. The procedure: as §5
Test [5] relates to constitutive GFP reporter. The experiment in a line: E. coli constitutive GFP reporter (pUC18T-mini-Tn7T-Gm-gfpmut3). Format: cell-based, Escherichia coli.
Description: To test whether these effects were specific to the lacZ reporter or general to other reporters, we generated an orsellinaldehyde dose-response curve using a strain constitutively expressing GFP (E. coli carrying a constitutive GFP-producing plasmid pUC18T-mini-Tn7T-Gm-gfpmut3).
as §2, with “The resulting plasmid with the aphA-3 promoter transcriptionally fused to lacZ was designated pVT19. For constitutive expression of the gfp reporter, we used E. coli DH5α with plasmid pUC18T-mini-Tn7T-Gm-gfpmut3 ([53]).” left out

The mark [6] stands for this setting: IC50 ± CI, RhlR reporter, competed against 400 nM C4-HSL, 95% confidence interval in parentheses.
The mark [7] stands for this setting: read-out: IC50 ± CI, Constitutive reporter.

As a reminder, the IC50 is the concentration that gives 50% inhibition.

T1 sequence (P54292 whole entry): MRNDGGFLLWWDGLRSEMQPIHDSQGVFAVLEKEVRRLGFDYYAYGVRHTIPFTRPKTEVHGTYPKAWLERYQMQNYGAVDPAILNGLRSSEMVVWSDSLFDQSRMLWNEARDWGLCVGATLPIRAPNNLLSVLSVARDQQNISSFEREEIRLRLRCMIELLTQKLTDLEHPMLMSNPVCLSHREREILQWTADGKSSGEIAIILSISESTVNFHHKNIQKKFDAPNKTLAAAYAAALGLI
T2 sequence (P25084 whole entry): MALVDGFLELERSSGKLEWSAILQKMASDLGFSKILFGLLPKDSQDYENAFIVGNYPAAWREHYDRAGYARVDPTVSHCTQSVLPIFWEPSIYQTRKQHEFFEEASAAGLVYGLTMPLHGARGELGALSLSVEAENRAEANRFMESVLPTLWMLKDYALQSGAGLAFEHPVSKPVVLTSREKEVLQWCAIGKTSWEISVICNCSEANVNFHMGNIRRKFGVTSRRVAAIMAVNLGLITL
T3 sequence (P25084 whole entry S129A): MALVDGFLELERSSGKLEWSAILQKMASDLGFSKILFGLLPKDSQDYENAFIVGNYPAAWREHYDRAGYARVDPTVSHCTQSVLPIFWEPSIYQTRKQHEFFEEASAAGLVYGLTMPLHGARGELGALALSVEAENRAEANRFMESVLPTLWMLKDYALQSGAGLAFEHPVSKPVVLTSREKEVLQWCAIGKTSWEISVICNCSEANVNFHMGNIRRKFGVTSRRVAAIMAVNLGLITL

Take `Cc1ccc(O)c(C=O)c1` [2-hydroxy-5-methylbenzaldehyde]: the half-inhibitory concentration (IC50) at RhlR (setting [6]) is 1080 µM; at LasR it was 1500 µM; in test [1], 2020 µM; in test [2] (setting [7]) it was 1790 µM. The “fold lower concentration inhibiting LasR-specific reporter than constitutive reporter” value at LasR worked out at 1.3 fold.
On to `COc1cccc(C=O)c1O` [ortho-Vanillin], for which the “change in potency with varying C4-HSL concentration (competition test)” value at RhlR (C4-HSL at 400 nM, 10 µM and 100 µM) is “significant C4-HSL concentration-dependent decrease in the potency”. Besides, the “fold lower IC50 with RhlR than with constitutive lacZ reporter” value on RhlR (IC50 constitutive lacZ reporter vs RhlR reporter) is recorded as “fivefold”. Also, the IC50 on RhlR (setting [6]) was 151 µM; at LasR it was 437 µM; in test [1], 1260 µM; in test [2] (read-out: IC50, Constitutive reporter, Hill slope set at 1.0), 774 µM; in test [2] (setting [7]), 872 µM. For the same compound, on LasR (3OC12-HSL at […] nM, 1 µM and 10 µM, P > 0.07), the “difference in IC50 with varying 3OC12-HSL concentration (competition test)” value is listed as “not significant”. The “fold lower concentration inhibiting LasR-specific reporter than constitutive reporter” value on LasR is on record as “threefold”. The “concentration until which there was no antagonism of the constitutive lacZ reporter” value in test [2] (RhlR reporter conditions) is recorded as more than 500 µM. Moreover, the “antagonism of LasR mutants compared with wild-type LasR” value with LasR mutants [3] was “indistinguishable from that of the wild-type LasR”.
Regarding `COc1ccc(C=O)c(O)c1` [2-hydroxy-4-methoxybenzaldehyde], the IC50 was found to be 458 µM at RhlR (setting [6]), 1040 µM at LasR, 1960 µM in test [1] and 1360 µM in test [2] (setting [7]).
`CCCCCCCCCC(=O)CC(=O)Nc1ccccc1` [V-06–018]: on LasR mutants [4] (competed against 3OC12-HSL at its EC50), the “antagonism of LasR S129A mutant compared with wild-type LasR” value is listed as “significantly less active”. Besides, the “IC50, LasR S129A mutant” value against LasR mutants [4] (insufficient antagonism) is “could not be determined”.
For `O=C/C=C/c1ccccc1` [Cinnamaldehyde], the IC50 on RhlR (setting [6]) was determined as 1310 µM; at LasR, 851 µM; in test [1], 1460 µM; in test [2] (setting [7]) it was 2850 µM.
With `O=C(O)c1ccccc1O` [Salicylic acid, reference compound], the half-maximal inhibitory concentration (IC50) at RhlR (IC50, RhlR reporter, competed against C4-HSL) was approximately 10000 µM; at RhlR (setting [6]) it was 10000 µM; in test [1], 3650 µM; in test [2] (setting [7]), 6260 µM.
On to `Cc1cc(O)cc(O)c1C=O` [Orsellinaldehyde], for which the “reduction of growth yield” value with E. coli is reported as 10%–20%. Moreover, the half-maximal inhibitory concentration (IC50) was 956 µM on RhlR (setting [6]); 1060 µM in test [5] (Escherichia coli, read-out: IC50, constitutive GFP reporter); 2370 µM at LasR; 2310 µM in test [1]; 2750 µM in test [2] (setting [7]). In test [5] (E. coli constitutive GFP reporter, Fig. S1 legend), the “calculated LD50 of orsellinaldehyde with GFP” value is listed as 1057 µM.
